Measured values taken from US4241056A, “Penicillins and salts thereof” (Boehringer Ingelheim GmbH, priority 1978, dated 1980).

Key:
[1] = tested on: Staphylococcus aureus SG 511; test: MIC, serial dilution test in the microtiter system; type: cell-based; conditions: SG511, 18 h, Staph. Aureus SG 511, 37° C., 18-20 hours
Description: (§1) The tests were performed according to the method of the serial dilution test in the microtiter system. The effect of the substances on bacteriostasis was examined in a fluid medium. The activity on bacteriostatis was examined at the following concentrations:
(§2) 10 gm of peptone, 8 gm of meat extract-oxoid, 3 gm of sodium chloride, 2 gm of sec. sodium phosphate were diluted with distilled water to 1000 ml (pH 7.2-7.4). Only in the test against streptococci 1% of glucose was added. The age of the primary cultures was about 20 hours. The standardizations of the pathogen suspension was effected by using a photometer according to "Eppendorf" (test tube diameter 14 mm, filter 546 nm) with the aid of the turbidity of a comparison suspension consisting of barium sulfate, this suspension being prepared by addition of 3.0 ml of 1% barium chloride solution to 97 ml of 1% sulfuric acid. After the standardization, streptococcus aronson were further diluted to a concentration of 1:15 and the other germs to a concentration of 1:1500 by menas of a sodium chloride solution.
(§3) 16 mg of the test substance were put into a 10 ml measuring flask and filled up to the mark with the solvent. The further dilution series was standardized with distilled water or the respective solvent.
(§4) The cavities of the microtiter plates were filled with 0.2 ml of nutrient medium. Then, 0.01 ml of the corresponding test substance dilution was added and inoculated with 0.01 ml of the standardized suspension. The bacteria were incubated at 37° C. for 18-20 hours. Control tests merely using the solvent were carried out simultaneously.
(§5) The measurement was carried out macroscopically to determine the minimal inhibitory (threshold) concentration, i.e. the lowest still bacteriostatically effective concentration.
(§6) Staphylococcus aureus SG 511, streptococcus aronson, streptococcus faecalis ATCC 10541, escherichia coli ATCC 9637, 11 775 and escherichia coli 12593/74 (β-lactamase carrier), pseudomonas aeruginosa hamburgensis and ATCC 10145, serratia marcescens ATCC 13 880, klebsiella pneumoniae ATCC 10 031 and 272 and proteus mirabilis hamburgensis.

[2] = tested on: escherichia coli 12593/74 (β-lactamase carrier); test: MIC, serial dilution test in the microtiter system; type: cell-based; conditions: 18 h, E. coli 12593/74 (β-lactamase carrier), 37° C., 18-20 hours
Description: as §1, §2, §3, §4, §5, §6

[3] = tested on: escherichia coli ATCC 11775; test: MIC, serial dilution test in the microtiter system; type: cell-based; conditions: ATCC11775, 18 h, E. coli ATCC 11775, 37° C., 18-20 hours
Description: as §1, §2, §3, §4, §5, §6

[4] = tested on: escherichia coli ATCC 9637; test: MIC, serial dilution test in the microtiter system; type: cell-based; conditions: ATCC9637, 18 h, E. coli ATCC 9637, 37° C., 18-20 hours
Description: as §1, §2, §3, §4, §5, §6

[5] = tested on: klebsiella pneumoniae 272; test: MIC, serial dilution test in the microtiter system; type: cell-based; conditions: 18 h, klebs pneum. 272, 37° C., 18-20 hours
Description: as §1, §2, §3, §4, §5, §6

[6] = tested on: klebsiella pneumoniae ATCC 10 031; test: MIC, serial dilution test in the microtiter system; type: cell-based; conditions: 18 h, klebs pneum ATCC 10031, 37° C., 18-20 hours
Description: as §1, §2, §3, §4, §5, §6

[7] = tested on: proteus mirabilis hamburgensis; test: MIC, serial dilution test in the microtiter system; type: cell-based; conditions: 18 h, prot. mirabilis, 37° C., 18-20 hours
Description: as §1, §2, §3, §4, §5, §6

[8] = tested on: pseudomonas aeruginosa ATCC 10145; test: MIC, serial dilution test in the microtiter system; type: cell-based; conditions: ATCC10145, 18 h, pseud. aerug. ATCC 10145, 37° C., 18-20 hours
Description: as §1, §2, §3, §4, §5, §6

[9] = tested on: pseudomonas aeruginosa hamburgensis; test: MIC, serial dilution test in the microtiter system; type: cell-based; conditions: 18 h, pseud. aerug. hamb., 37° C., 18-20 hours
Description: as §1, §2, §3, §4, §5, §6

[10] = tested on: serratia marcescens ATCC 13 880; test: MIC, serial dilution test in the microtiter system; type: cell-based; conditions: ATCC13, 18 h, serrat marcesc., 37° C., 18-20 hours
Description: as §1, §2, §3, §4, §5, §6

streptococcus aronson = test: MIC, serial dilution test in the microtiter system; type: cell-based; conditions: 18 h, strept. aronson, 1% glucose added, 37° C., 18-20 hours
Description: as §1, §2, §3, §4, §5, §6

[11] = tested on: streptococcus faecalis ATCC 10541; test: MIC, serial dilution test in the microtiter system; type: cell-based; conditions: Enterococcus faecalis, ATCC10541, 18 h; strept. faecal.; 37° C., 18-20 hours
Description: as §1, §2, §3, §4, §5, §6

[12] = Serum (blood) level in rats; type: in vivo; conditions: rat, average from 3 rats; for concentration at 1 h: 60 min.; for concentration at 2 h: 120 min.; for concentration at 0.5 h: 30 min.
Description: For the determination of the serum level in rats, typical representatives of the penicillins according to the invention were administered at a dosage of 10 mg/kg subcutaneously or 100 mg/kg per os to groups of 3 female FW 49 rats (weight 100 to 130 gm) each. Blood tests taken from the heart were worked up, and the obtained sera were tested by the cylinder test-agar diffusion method on plates with sarcina lutea ATCC 15957. The samples were compared with standard curves.

E. coli ATCC 11775 [13] = test: In vivo activity against experimental infection in mice; set-up: species or system mouse (NMRI); conditions: Escherichia coli, ATCC11775, sc, 168 h, subcutaneous, 7 days observation, read-out: ED50 (dose at which 50% of the animals survived)
Description: A number of compounds of this invention were tested in vivo in mice against experimental infections. Bacteria E. coli ATCC 11775 and pseudomonas aeruginosa walter were used as pathogens. An intraperitoneal infection with 0.2 ml of a 5% mucin suspension of the bacteria was induced. This corresponds to about 2×10^6 germs E. coli and 8×10^5 germs pseudomonas/mouse. Female NMRI mice were divided into groups of 10 animals each, two control groups remained untreated, the remaining groups were treated with different doses of the respective penicillins for the determination of the ED50 (dose at which 50% of the animals survived). The groups with the E. coli infection were treated with the substance 3 times on the first day (1, 4 and 7 hours post-infectionem) and for 2 days thereafter twice a day. The groups with the pseudomonas infection were treated with the substance applied 6 times on the first day (1, 3, 6, 9, 12, and 15 hours post-infectionem) and for 2 days thereafter twice a day. The observation time was in both cases 7 days.

E. coli ATCC 11775 [14] = test: Influence of the size of the inoculum on the MIC-values; type: cell-based; conditions: Escherichia coli
Description: (§7) For the penicillins C and H, which are typical representatives for this invention, the influence of the size of the inoculum on the MIC-values against ps. aerug. hamburg. and E. coli ATCC 11775 in the microtiter system was determined. Thereby 3 different sizes of inoculum (3.3×10^6, 3.3×10^4 and 3.3×10^2 in E. coli and 4.7×10^6, 4.7×10^4 and 4.7×10^2 in pseudomonas) were used. The reference system was again penicillin Q.

pseud. aerug. hamburg. = test: as above; type: cell-based; conditions: Pseudomonas aeruginosa
Description: as §7

Row | Structure (SMILES) | MIC [1] [µg/mL] | MIC [2] [µg/mL] | MIC [3] [µg/mL] | MIC [4] [µg/mL] | MIC [5] [µg/mL] | MIC [6] [µg/mL] | MIC [7] [µg/mL] | MIC [8] [µg/mL] | MIC [9] [µg/mL] | MIC [10] [µg/mL] | MIC (streptococcus aronson) [µg/mL] | MIC [11] [µg/mL] | concentration at 1 h ([12]; oral 100 mg/kg) [ng/mL] | concentration at 2 h ([12]; oral 100 mg/kg) [ng/mL] | concentration at 1 h ([12]; sc, subcutaneous 10 mg/kg) [ng/mL] | concentration at 2 h ([12]; sc, subcutaneous 10 mg/kg) [ng/mL] | ED50 (E. coli ATCC 11775 [13]) [mg/kg] | other results
1 | CC1(C)S[C@@H]2[C@H](NC(=O)[C@H](NC(=O)Nc3cnc(Nc4ccccc4)nc3O)c3ccc(O)cc3)C(=O)N2[C@H]1C(=O)O [G, D-α-[3-(2-anilino-4-hydroxy-5-pyrimidyl)-ureido]-p-hydroxy-benzyl-penicillin sodium] | 0.3 | > 80 | 1.25 | 0.6 | 5 | 10 | 2.5 | 2.5 | 5 | 0.3 | 0.08 | 5 | 600 | 100 | 5600 | 1500 | 8 | 
2 | CC1(C)S[C@@H]2[C@H](NC(=O)[C@H](NC(=O)Nc3cnc(Cc4ccc(Cl)cc4)nc3O)c3ccc(O)cc3)C(=O)N2[C@H]1C(=O)O [D, D-α-[3-(2-p-chlorobenzyl-4-hydroxy-5-pyrimidyl)-ureido]-p-hydroxybenzyl-penicillin sodium] | 0.08 | 80 | 1.25 | 2.5 | 10 | 5 | 1.25 | 2.5 | 5 | 1.25 | 0.02 | 10 | 4100 | 1000 | 7100 | 300 | 9 | 
3 | CC(=O)Nc1ncc(NC(=O)N[C@@H](C(=O)N[C@@H]2C(=O)N3[C@@H]2SC(C)(C)[C@@H]3C(=O)O)c2ccc(O)cc2)c(O)n1 [Compound E, D-α-[3-(acetylamino-4-hydroxy-pyrimidyl)-ureido]-p-hydroxybenzyl-penicillin sodium] | 1.25 | > 80 | 2.5 | 5 | 80 | 80 | 1.25 | 2.5 | 2.5 | 10 | 0.3 | 10 | 13900 | 13700 | 5800 | 7700 | 15 | concentration at 0.5 h ([12]; oral 100 mg/kg): 13800 ng/mL; concentration at 0.5 h ([12]; sc, subcutaneous 10 mg/kg): 4100 ng/mL
4 | CC1(C)S[C@@H]2[C@H](NC(=O)[C@H](NC(=O)Nc3cnc(Nc4ccc(Cl)cc4)nc3O)c3ccc(O)cc3)C(=O)N2[C@H]1C(=O)O [H, D-α-[3-(2-p-chloroanilino-4-hydroxy-5-pyrimidyl)-ureido]-p-hydroxybenzyl-penicillin sodium] | 1.25 | 80 | 0.6 | 1.25 | 2.5 | 5 | 0.6 | 1.25 | 2.5 | 1.25 | 0.08 | 5 |  |  |  |  |  | MIC (E. coli ATCC 11775 [14]; ATCC11775, inoculum 3.3 × 10^2 germs/ml): 0.3 µg/mL; MIC (E. coli ATCC 11775 [14]; ATCC11775, inoculum 3.3 × 10^4 germs/ml): 0.6 µg/mL; MIC (E. coli ATCC 11775 [14]; ATCC11775, inoculum 3.3 × 10^6 germs/ml): 1 µg/mL; MIC (pseud. aerug. hamburg.; inoculum 4.7 × 10^2 germs/ml): 2.5 µg/mL; MIC (pseud. aerug. hamburg.; inoculum 4.7 × 10^4 germs/ml): 2.5 µg/mL; MIC (pseud. aerug. hamburg.; inoculum 4.7 × 10^6 germs/ml): > 80 µg/mL
5 | Cc1ncc(NC(=O)N[C@@H](C(=O)N[C@@H]2C(=O)N3[C@@H]2SC(C)(C)[C@@H]3C(=O)O)c2ccc(O)cc2)c(O)n1 [B, D-α-[3-(4-hydroxy-2-methyl-5-pyrimidyl)-ureido]-p-hydroxybenzyl-penicillin sodium] | 1.25 | 80 | 1.25 | 2.5 | 80 | 80 | 0.6 | 2.5 | 5 | 5 | 0.3 | 10 | 18800 | 1900 | 7300 | 1100 | 5 | 
